This note sets out measurements from patent US10975037B2 (priority 2018, dated 2021).

Molecules are shown by their SMILES. Counter-ions that a name gives are not always drawn. Like-named read-outs stand apart in the source and are kept apart here.

Assay [1] addresses human RORγt ligand binding domain (RORγt LBD) (Homo sapiens (Human), UniProt P51449). As to the kind of experiment: RORγt ThermoFluor® assay (thermal shift binding). As to the method:
This approach is applicable to a wide variety of systems, and rigorous in theoretical interpretation through quantitation of equilibrium binding constants (KD).
The shift in the melting point described as a ΔTm is proportional to the concentration and affinity of the ligand.
RORγt ThermoFluor® Assay Construct
Reference wells contained RORγt without compounds, and the assay conditions were as follows: • 0.065 mg/mL RORγt • 60 μM 1,8-ANS • 100 mM Hepes, pH 7.0 • 10 mM NaCl • 2.5 mM GSH • 0.002% Tween-20
Project compounds were arranged in a pre-dosed mother plate (Greiner Bio-one) wherein compounds are serially diluted in 100% DMSO by 1:2 from a high concentration of 10 mM over 12 columns within a series (column 12 is a reference well containing DMSO, no compound). The compounds were robotically dispensed directly into assay plates (1×=46 nL) using a Hummingbird capillary liquid handling instrument (Digilab). Following compound dispense, protein and dye in buffer was added to achieve the final assay volume of 3 μL, followed by 1 μL of silicone oil.

A further assay deals with full-length human RORγt (Homo sapiens (Human), UniProt P51449). Nature of the assay: RORγt (full-length human) reporter assay, conditions A or B, HEK293T cells. It is filed as cell-based. The conditions noted are these: for IC50: RORγt (FL) Reporter Assay A or B, IC50, HEK293T cells; for inhibition at 2 µM: 2 μM compound concentration. As to the method: RORγt (Full-Length Human) Reporter Assay:
(§1) HEK293T cells were plated at 35,000 per well in 96-well plate in medium of DMEM with 10% FBS. […] After overnight (16 to 20 hours) incubation, media were removed and cells were lysed with 50 L Glo Lysis Buffer (Promega) for 10-15 minutes followed by 10 minute incubation with 50 μL Dual Glo reagent (Promega) at room temperature. Firefly luciferase luminescence was measured using a BMG Pherastar plate reader. To each well, 50 μL Stop and Glo reagent was added and incubated for 10 minutes at room temperature. Renilla luminescence was measured using a BMG Pherastar plate reader. To calculate the effect of compounds on RORγt activity, firefly values were normalized against values of DMSO only and values of reference compound at saturating concentration, then further normalized against Renilla signals. IC50s were generated by plotting final Renilla normalized data against compound concentration and percent inhibition was calculated against DMSO control.
as §1, with “at 8750 cells” for “at 35,000”, “in 384-well” for “in 96-well”, “with 20” for “with 50”, “well, 20” for “well, 50”

Setting [2] is: read-out: ThermoFluor® Assay, Kd.
Where [3] appears, read: HEK-293T, read-out: RORγt (FL) Reporter Assay A or B, % inhibition.
Where [4] appears, read: HEK-293T, 3 μM compound concentration (footnote *), read-out: RORγt (FL) Reporter Assay A or B, % inhibition.
Setting [5] is: HEK-293T, 0.22 μM compound concentration (footnote *******), read-out: RORγt (FL) Reporter Assay A or B, % inhibition.

human RORγt ligand binding domain (RORγt LBD), sequence (P51449 other isoform, or with tags, fused parts or gaps): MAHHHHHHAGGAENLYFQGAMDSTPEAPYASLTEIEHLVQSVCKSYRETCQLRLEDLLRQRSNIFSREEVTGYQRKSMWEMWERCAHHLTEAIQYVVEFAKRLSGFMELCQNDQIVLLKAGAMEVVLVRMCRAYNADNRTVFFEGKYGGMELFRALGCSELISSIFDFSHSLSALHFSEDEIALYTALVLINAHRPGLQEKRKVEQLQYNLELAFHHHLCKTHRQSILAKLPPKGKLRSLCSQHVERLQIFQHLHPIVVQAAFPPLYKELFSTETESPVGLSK
full-length human RORγt, sequence (P51449 other isoform, or with tags, fused parts or gaps): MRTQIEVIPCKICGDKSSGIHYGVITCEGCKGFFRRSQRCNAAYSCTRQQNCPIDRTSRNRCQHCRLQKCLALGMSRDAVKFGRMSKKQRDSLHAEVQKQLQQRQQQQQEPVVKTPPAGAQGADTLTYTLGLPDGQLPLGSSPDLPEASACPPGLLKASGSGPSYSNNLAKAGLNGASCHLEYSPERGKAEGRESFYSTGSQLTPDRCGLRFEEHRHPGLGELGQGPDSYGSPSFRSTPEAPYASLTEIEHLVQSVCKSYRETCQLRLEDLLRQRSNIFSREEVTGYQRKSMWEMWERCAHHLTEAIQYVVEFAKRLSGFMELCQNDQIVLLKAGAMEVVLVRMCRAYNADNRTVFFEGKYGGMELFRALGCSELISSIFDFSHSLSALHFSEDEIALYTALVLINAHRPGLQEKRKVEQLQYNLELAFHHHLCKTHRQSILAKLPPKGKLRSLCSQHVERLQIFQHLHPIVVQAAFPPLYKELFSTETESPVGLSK

With `CCn1nc(C(=O)NC[C@H]2CC[C@H](S(C)(=O)=O)CC2)c(Cl)c1-c1ccc(C2(O)CCC(C(F)(F)F)CC2)cc1OC(F)F` (single isomer, unassigned) [Example 114, 4-Chloro-5-(2-(difluoromethoxy)-4-((1s*,4s*)-1-hydroxy-4-(trifluoromethyl)cyclohexyl)phenyl)-1-ethyl-N-(((1r,4r)-4-(methylsulfonyl)cyclohexyl)methyl)-1H-pyrazole-3-carboxamide], in assay [1] (ThermoFluor® Assay, Kd), the equilibrium dissociation constant (Kd) is 0.98 µM. In addition, the inhibition at 1 µM at full-length human RORγt (HEK-293T, 1 μM compound concentration (footnote ***), read-out: RORγt (FL) Reporter Assay A or B, % inhibition) came out at 82%. The IC50 on full-length human RORγt came out at 0.41 µM.
`CCn1nc(C(=O)NC[C@H]2CC[C@@H](S(C)(=O)=O)CC2)c(Cl)c1-c1ccc(N[C@H](C)C(F)(F)F)cc1Cl` [Example 175, 4-Chloro-5-(2-chloro-4-(((R)-1,1,1-trifluoropropan-2-yl)amino)phenyl)-1-ethyl-N-(((1s,4S)-4-(methylsulfonyl)cyclohexyl)methyl)-1H-pyrazole-3-carboxamide]: in assay [1] (setting [2]), the Kd came out at 0.23 µM. For the same molecule, the inhibition at 2 µM at full-length human RORγt (setting [3]) is 88%. Also, the IC50 against full-length human RORγt is 0.51 µM.
The like results for `CCc1cc(N[C@H](C)C(F)(F)F)ccc1-c1c(Cl)c(C(=O)NC[C@H]2CC[C@H](S(C)(=O)=O)CC2)nn1CC` [Example 206, 4-Chloro-1-ethyl-5-(2-ethyl-4-(((R)-1,1,1-trifluoropropan-2-yl)amino)phenyl)-N-(((1r,4R)-4-(methylsulfonyl)cyclohexyl)methyl)-1H-pyrazole-3-carboxamide] were, in that order, 0.007 µM, 100% and 0.031 µM.
For the molecule `CCn1nc(C(=O)NC[C@]2(O)CC[C@@H](S(C)(=O)=O)CC2)c(Cl)c1-c1ccc(C(=O)C(C)(C)C(F)(F)F)cc1OC(F)F` [Example 105, 4-Chloro-5-(2-(difluoromethoxy)-4-(3,3,3-trifluoro-2,2-dimethylpropanoyl)phenyl)-1-ethyl-N-(((1s,4s)-1-hydroxy-4-(methylsulfonyl)cyclohexyl)methyl)-1H-pyrazole-3-carboxamide], the Kd in assay [1] (setting [2]) is 0.0033 µM. Moreover, the inhibition at 3 µM on full-length human RORγt (setting [3]) was determined as 28%. The IC50 against full-length human RORγt amounted to 0.013 µM.
Consider `CCn1nc(C(=O)NC[C@]2(O)CC[C@@H](S(C)(=O)=O)C[C@H]2N)c(Cl)c1-c1ccc(CC(C)(C)C(F)(F)F)cc1OC(F)F` (stereo in doubt) [Example 5, N-(((1RS,2RS,4RS)-2-Amino-1-hydroxy-4-(methylsulfonyl)cyclohexyl)methyl)-4-chloro-5-(2-(difluoromethoxy)-4-(3,3,3-trifluoro-2,2-dimethylpropyl)phenyl)-1-ethyl-1H-pyrazole-3-carboxamide Hydrobromide], for which, in assay [1] (ThermoFluor® Assay, Kd), the Kd came to 0.0017 µM. Besides, the inhibition at 3 µM at full-length human RORγt (setting [4]) was determined as 103%. Besides, the half-inhibitory concentration (IC50) against full-length human RORγt came out at 0.12 µM.
As for `CCn1nc(C(=O)NC[C@H]2CC[C@H](S(C)(=O)=O)CC2)c(C)c1-c1ccc(N[C@H](C)C(F)(F)F)cc1OC` [Example 228, 1-Ethyl-5-(2-methoxy-4-(((R)-1,1,1-trifluoropropan-2-yl)amino)phenyl)-4-methyl-N-(((1r,4R)-4-(methylsulfonyl)cyclohexyl)methyl)-1H-pyrazole-3-carboxamide], the Kd in assay [1] (setting [2]) amounted to 0.012 µM. In addition, on full-length human RORγt (HEK-293T, read-out: RORγt (FL) Reporter Assay A or B, % inhibition @ 6 μM, 6 μM compound concentration), the inhibition at 6 µM was 99%. This molecule gave an IC50 against full-length human RORγt of 0.029 µM.
On to `CCn1nc(C(=O)NC[C@H]2CC[C@H](S(C)(=O)=O)CC2)c(Cl)c1-c1ccc(N2CC(C(F)(F)F)C2)cc1OC` [Example 208, 4-Chloro-1-ethyl-5-(2-methoxy-4-(3-(trifluoromethyl)azetidin-1-yl)phenyl)-N-(((1r,4r)-4-(methylsulfonyl)cyclohexyl)methyl)-1H-pyrazole-3-carboxamide], for which the Kd in assay [1] (setting [2]) stood at 0.04 µM. For the same molecule, the inhibition at 2 µM on full-length human RORγt (setting [3]) is 87%. The molecule also yielded an IC50 at full-length human RORγt of 0.15 µM.
`CCn1nc(C(=O)NC[C@]2(O)CC[C@@H](S(N)(=O)=O)CC2)c(Cl)c1-c1ccc(C[C@H](C)C(F)(F)F)cc1OC(F)F` (single isomer, unassigned) [Example 60, 4-Chloro-5-(2-(difluoromethoxy)-4-((S*)-3,3,3-trifluoro-2-methylpropyl)phenyl)-1-ethyl-N-(((1s,4R)-1-hydroxy-4-sulfamoylcyclohexyl)methyl)-1H-pyrazole-3-carboxamide]: in assay [1] (ThermoFluor® Assay, Kd), the Kd came to 0.0019 µM. The inhibition at 3 µM at full-length human RORγt (setting [4]) stood at 114%. At full-length human RORγt, the midpoint of inhibition, the IC50, lay at 0.038 µM.
As for `CCn1nc(C(=O)NC[C@]2(O)CC[C@@H](S(C)(=O)=O)CC2)c(Cl)c1-c1ccc(CC(C)(C)CC(F)(F)F)cc1OC(F)F` [Example 90, 4-Chloro-5-(2-(difluoromethoxy)-4-(4,4,4-trifluoro-2,2-dimethylbutyl)phenyl)-1-ethyl-N-(((1s,4s)-1-hydroxy-4-(methylsulfonyl)cyclohexyl)methyl)-1H-pyrazole-3-carboxamide], in assay [1] (setting [2]), the Kd came out at 0.00051 µM. Moreover, the inhibition at […] on full-length human RORγt (HEK-293T, 0.33 μM compound concentration (footnote *****), read-out: RORγt (FL) Reporter Assay A or B, % inhibition) amounted to 91%. The molecule further came in with an IC50 against full-length human RORγt of 0.0096 µM.
On to `CCn1nc(C(=O)NC[C@]2(C#N)CC[C@@H](S(C)(=O)=O)CC2)c(Cl)c1-c1ccc(CC(C)(C)C(F)(F)F)cc1OC(F)F` [Example 134, 4-Chloro-N-(((1s*,4s*)-1-cyano-4-(methylsulfonyl)cyclohexyl)methyl)-5-(2-(difluoromethoxy)-4-(3,3,3-trifluoro-2,2-dimethylpropyl)phenyl)-1-ethyl-1H-pyrazole-3-carboxamide], for which the Kd in assay [1] (setting [2]) worked out at 0.0002 µM. The inhibition at […] at full-length human RORγt (setting [5]) was 102%. At full-length human RORγt, this molecule yielded an IC50 of 0.0013 µM.
As to `CCn1nc(C(=O)NC[C@]2(O)CC[C@@H](S(C)(=O)=O)C[C@H]2O)c(Cl)c1-c1ccc(C[C@@H](C)C(F)(F)F)cc1OC(F)F` (stereo in doubt) [Example 137, 4-Chloro-5-(2-(difluoromethoxy)-4-((R*)-3,3,3-trifluoro-2-methylpropyl)phenyl)-N-(((1R*,2R*,4R*)-1,2-dihydroxy-4-(methylsulfonyl)cyclohexyl)methyl)-1-ethyl-1H-pyrazole-3-carboxamide], the Kd in assay [1] (ThermoFluor® Assay, Kd) worked out at 0.002 µM. Also, the inhibition at 3 µM at full-length human RORγt (setting [4]) turned out to be 102%. The molecule also displayed an IC50 against full-length human RORγt of 0.0048 µM.
As for `COCCn1nc(C(=O)NC[C@H]2CC[C@H](S(C)(=O)=O)CC2)c(Cl)c1-c1ccc(CC(C)(C)C(F)(F)F)cc1OC` [Example 185, 4-Chloro-5-(2-methoxy-4-(3,3,3-trifluoro-2,2-dimethylpropyl)phenyl)-1-(2-methoxyethyl)-N-(((1r,4r)-4-(methylsulfonyl)cyclohexyl)methyl)-1H-pyrazole-3-carboxamide], the Kd in assay [1] (setting [2]) came out at 0.0024 µM. On full-length human RORγt (setting [3]), the inhibition at 2 µM was determined as 92%. At full-length human RORγt, this molecule yielded an IC50 of 0.03 µM.
For `CCn1nc(C(=O)NC[C@H]2CC[C@H](S(C)(=O)=O)CC2)c(Cl)c1-c1ccc(CC(C)(C)C(F)(F)F)cc1C(F)(F)F` [Example 162, 4-Chloro-1-ethyl-N-(((1r,4r)-4-(methylsulfonyl)cyclohexyl)methyl)-5-(4-(3,3,3-trifluoro-2,2-dimethylpropyl)-2-(trifluoromethyl)phenyl)-1H-pyrazole-3-carboxamide], the Kd in assay [1] (setting [2]) is 0.00048 µM. For the same molecule, the inhibition at […] on full-length human RORγt (setting [5]) was 72%. Besides, at full-length human RORγt, inhibition was half-maximal at 0.0059 µM (IC50).
The matching figures for `CCn1nc(C(=O)NC[C@H]2CC[C@H](S(C)(=O)=O)CC2)c(Cl)c1-c1ccc(CC(C)(C)C(F)(F)F)cc1C` [Example 182, 4-Chloro-1-ethyl-5-(2-methyl-4-(3,3,3-trifluoro-2,2-dimethylpropyl)phenyl)-N-(((1r,4r)-4-(methylsulfonyl)cyclohexyl)methyl)-1H-pyrazole-3-carboxamide]: 0.001 µM, 81% and 0.019 µM.
